Measured values as given in PMC11277489, “Novel Piperazine Derivatives of Vindoline as Anticancer Agents” (International Journal of Molecular Sciences, 2024).

Assays:
[1] = test system: UACC-257; experiment: NCI60 one-dose screen (10 μM), Melanoma; assay type: cell-based; conditions: Homo sapiens, UACC-257, read-out: Growth percent rate
[2] = test system: COLO 205; experiment: NCI60 one-dose screen (10 μM), Colon Cancer; assay type: cell-based, human; conditions: Homo sapiens, COLO 205, read-out: Growth percent rate
[3] = test system: OVCAR-8; experiment: NCI60 one-dose screen (10 μM), Ovarian Cancer; assay type: cell-based; conditions: Homo sapiens, OVCAR-8, read-out: Growth percent rate
[4] = test system: EKVX; experiment: NCI60 one-dose screen (10 μM), Non-small Cell Lung Cancer; assay type: cell-based; conditions: Homo sapiens, read-out: Growth percent rate
[5] = test system: SF-295; experiment: NCI60 one-dose screen (10 μM), CNS Cancer; assay type: cell-based; conditions: Homo sapiens, SF-295, read-out: Growth percent rate
[6] = test system: RXF 393; experiment: NCI60 one-dose screen (10 μM), Renal Cancer; assay type: cell-based, human; conditions: Homo sapiens, RXF 393, read-out: Growth percent rate
[7] = test system: SN12C; experiment: NCI60 one-dose screen (10 μM), Renal Cancer; assay type: cell-based; conditions: Homo sapiens, read-out: Growth percent rate
[8] = test system: CAKI-1; experiment: NCI60 one-dose screen (10 μM), Renal Cancer; assay type: cell-based; conditions: Homo sapiens, CAKI-1, read-out: Growth percent rate
[9] = test system: SF-268; experiment: NCI60 one-dose screen (10 μM), CNS Cancer; assay type: cell-based; conditions: Homo sapiens, SF-268, read-out: Growth percent rate
[10] = test system: NCI-H23; experiment: NCI60 one-dose screen (10 μM), Non-small Cell Lung Cancer; assay type: cell-based; conditions: Homo sapiens, NCI-H23, read-out: Growth percent rate
[11] = test system: HCC-2998; experiment: NCI60 one-dose screen (10 μM), Colon Cancer; assay type: cell-based; conditions: Homo sapiens, HCC 2998, read-out: Growth percent rate
[12] = test system: SNB-75; experiment: NCI60 one-dose screen (10 μM), CNS Cancer; assay type: cell-based, human; conditions: Homo sapiens, SNB-75, read-out: Growth percent rate
[13] = test system: OVCAR-3; experiment: NCI60 one-dose screen (10 μM), Ovarian Cancer; assay type: cell-based; conditions: Homo sapiens, OVCAR-3, read-out: Growth percent rate
[14] = test system: MCF7; experiment: NCI60 one-dose screen (10 μM), Breast Cancer; assay type: cell-based; conditions: Homo sapiens, MCF7, read-out: Growth percent rate
[15] = test system: MOLT-4; experiment: NCI60 one-dose screen (10 μM), Leukemia; assay type: cell-based, human; conditions: Homo sapiens, MOLT-4, read-out: Growth percent rate
[16] = test system: 60 human tumor cell lines (NCI60); experiment: NCI60 one-dose screen (10 μM), whole panel; assay type: cell-based; conditions: for antiproliferative effect (in words): 10 μM one-dose, NCI60
[17] = test system: SNB-19; experiment: NCI60 one-dose screen (10 μM), CNS Cancer; assay type: cell-based; conditions: Homo sapiens, SNB-19, read-out: Growth percent rate
[18] = test system: 786–0; experiment: NCI60 one-dose screen (10 μM), Renal Cancer; assay type: cell-based; conditions: Homo sapiens, 786-0, read-out: Growth percent rate
[19] = test system: DU-145; experiment: NCI60 one-dose screen (10 μM), Prostate Cancer; assay type: cell-based; conditions: Homo sapiens, DU-145, read-out: Growth percent rate
[20] = test system: HL-60(TB); experiment: NCI60 one-dose screen (10 μM), Leukemia; assay type: cell-based; conditions: Homo sapiens, HL-60, read-out: Growth percent rate
[21] = test system: NCI-H460; experiment: NCI60 one-dose screen (10 μM), Non-small Cell Lung Cancer; assay type: cell-based; conditions: Homo sapiens, NCI-H460, read-out: Growth percent rate
[22] = test system: SK-MEL-2; experiment: NCI60 one-dose screen (10 μM), Melanoma; assay type: cell-based; conditions: Homo sapiens, SK-MEL-2, read-out: Growth percent rate
[23] = test system: NCI-H322M; experiment: NCI60 one-dose screen (10 μM), Non-small Cell Lung Cancer; assay type: cell-based; conditions: Homo sapiens, read-out: Growth percent rate
[24] = test system: SK-MEL-28; experiment: NCI60 one-dose screen (10 μM), Melanoma; assay type: cell-based; conditions: Homo sapiens, SK-MEL-28, read-out: Growth percent rate
[25] = test system: OVCAR-4; experiment: NCI60 one-dose screen (10 μM), Ovarian Cancer; assay type: cell-based; conditions: Homo sapiens, OVCAR-4, read-out: Growth percent rate
[26] = test system: SW-620; experiment: NCI60 one-dose screen (10 μM), Colon Cancer; assay type: cell-based; conditions: Homo sapiens, SW-620, read-out: Growth percent rate
[27] = test system: LOX IMVI; experiment: NCI60 one-dose screen (10 μM), Melanoma; assay type: cell-based, human; conditions: Homo sapiens, LOX IMVI, read-out: Growth percent rate
[28] = test system: MALME-3M; experiment: NCI60 one-dose screen (10 μM), Melanoma; assay type: cell-based; conditions: Homo sapiens, Malme-3M, read-out: Growth percent rate
[29] = test system: K-562; experiment: NCI60 one-dose screen (10 μM), Leukemia; assay type: cell-based; conditions: Homo sapiens, K562, read-out: Growth percent rate
[30] = test system: KM12; experiment: NCI60 one-dose screen (10 μM), Colon Cancer; assay type: cell-based, human; conditions: Homo sapiens, KM12, read-out: Growth percent rate
[31] = test system: NCI-H522; experiment: NCI60 one-dose screen (10 μM), Non-small Cell Lung Cancer; assay type: cell-based; conditions: Homo sapiens, NCI-H522, read-out: Growth percent rate
[32] = test system: SF-539; experiment: NCI60 one-dose screen (10 μM), CNS Cancer; assay type: cell-based, human; conditions: Homo sapiens, SF-539, read-out: Growth percent rate
[33] = test system: MDA-MB-435; experiment: NCI60 one-dose screen (10 μM), Melanoma; assay type: cell-based; conditions: Homo sapiens, MDA-MB-435, read-out: Growth percent rate
[34] = test system: A549/ATCC; experiment: NCI60 one-dose screen (10 μM), Non-small Cell Lung Cancer; assay type: cell-based; conditions: Homo sapiens, A549, read-out: Growth percent rate
[35] = test system: HCT-15; experiment: NCI60 one-dose screen (10 μM), Colon Cancer; assay type: cell-based; conditions: Homo sapiens, HCT-15, read-out: Growth percent rate
[36] = test system: CCRF-CEM; experiment: NCI60 one-dose screen (10 μM), Leukemia; assay type: cell-based; conditions: Homo sapiens, read-out: Growth percent rate
[37] = test system: HT29; experiment: NCI60 one-dose screen (10 μM), Colon Cancer; assay type: cell-based; conditions: Homo sapiens, HT-29, read-out: Growth percent rate
[38] = test system: M14; experiment: NCI60 one-dose screen (10 μM), Melanoma; assay type: cell-based; conditions: Homo sapiens, M14, read-out: Growth percent rate
[39] = test system: IGROV1; experiment: NCI60 one-dose screen (10 μM), Ovarian Cancer; assay type: cell-based; conditions: Homo sapiens, IGROV-1, read-out: Growth percent rate
[40] = test system: SK-MEL-5; experiment: NCI60 one-dose screen (10 μM), Melanoma; assay type: cell-based, human; conditions: Homo sapiens, SK-MEL-5, read-out: Growth percent rate
[41] = test system: ACHN; experiment: NCI60 one-dose screen (10 μM), Renal Cancer; assay type: cell-based; conditions: Homo sapiens, read-out: Growth percent rate
[42] = test system: HCT-116; experiment: NCI60 one-dose screen (10 μM), Colon Cancer; assay type: cell-based; conditions: Homo sapiens, HCT-116, read-out: Growth percent rate

Compound: CCC12C=CCN3CC[C@@]4(c5ccc(OC)cc5N(C)[C@H]4[C@@](O)(C(=O)OC)[C@@H]1OC(C)=O)[C@@H]32 (some centres unmarked) [Compound 1, vindoline]
- activity at 10 µM [1]: 95.8%
- activity at 10 µM [2]: 111%
- activity at 10 µM [3]: 103%
- activity at 10 µM [4]: 92%
- activity at 10 µM [5]: 103%
- activity at 10 µM [6]: 98%
- activity at 10 µM [7]: 100%
- activity at 10 µM [8]: 105%
- activity at 10 µM [9]: 122%
- activity at 10 µM [10]: 95.3%
- activity at 10 µM [11]: 101%
- activity at 10 µM [12]: 119%
- activity at 10 µM [13]: 127%
- activity at 10 µM [14]: 89.9%
- activity at 10 µM [15]: 92.7%
- antiproliferative effect (in words) [16]: a notable antiproliferative effect was not shown
- antiproliferative effect (in words) ([16]; listed as vindoline): does not show any anticancer effect
- activity at 10 µM ([16]; Homo sapiens, read-out: Growth percent rate, Mean): 107%
- activity at 10 µM [17]: 102%
- activity at 10 µM [18]: 97.5%
- activity at 10 µM [19]: 119%
- activity at 10 µM [20]: 96.7%
- activity at 10 µM [21]: 120%
- activity at 10 µM [22]: 106%
- activity at 10 µM [23]: 109%
- activity at 10 µM [24]: 134%
- activity at 10 µM [25]: 136%
- activity at 10 µM [26]: 121%
- activity at 10 µM [27]: 95.3%
- activity at 10 µM [28]: 147%
- activity at 10 µM [29]: 89.3%
- activity at 10 µM [30]: 108%
- activity at 10 µM [31]: 99.7%
- activity at 10 µM [32]: 116%
- activity at 10 µM [33]: 104%
- activity at 10 µM [34]: 101%
- activity at 10 µM [35]: 103%
- activity at 10 µM [36]: 102%
- activity at 10 µM [37]: 108%
- activity at 10 µM [38]: 105%
- activity at 10 µM [39]: 145%
- activity at 10 µM [40]: 89.2%
- activity at 10 µM [41]: 105%
- activity at 10 µM [42]: 116%
